Source: patent US20120196899A1, “METHODS AND PRODUCTS FOR TREATING INFLAMMATION” (Rock Creek Pharmaceuticals, Inc., priority 2010, published 2012)
Entries after “also recorded” stand apart in the source; their conditions may differ.

Columns and labels:
nAChR α7 [1] = target: T1, nAChR α7 (Homo sapiens, UniProt P36544); assay: cell-based; details: with 300 μM Ach + 10 μM PNU-120596, 10 μM MLA = full inhibition, read-out: Normalized % Inhibition
T1 construct: host or cells: CHO cells

nAChR α7 [2] = target: T1, nAChR α7; assay: nAChR α7 positive allosteric modulator assay (FLIPR); assay type: cell-based; details: with 30 μM Ach (= 0%), 30 μM Ach + 10 μM PNU-120596 = 100%
Protocol: The following three (3) channels were evaluated: • 1. nAChR α3/β4 (encoded by the human CHRNA3 and CHRNB4 gene and stably expressed in CHO cells); • 2. nAChR α4/β2 (CHRNA4 and CHRNB2 gene and transiently expressed in HEK293 cells); and • 3. nAChR α7 (encoded by the human nicotinic α7 gene coexpressed in CHO cells with the chaperone RIC-3 encoded by the human RIC3 gene).
The ability of each test article to act as an agonist, a positive allosteric modulator or antagonist of three nAChR receptor channels was evaluated in the presence of 0.1 atropine. Both test articles were evaluated for responses on each nAChR channel at eight (8) concentrations: 0.3, 1, 3, 10, 30, 100, 300, and 1000 μM (n=4 for each concentration).
HEK293 or CHO cells were transiently or stably transfected with the appropriate human ion channel cDNAs. Stable transfectants were selected by coexpression with the antibiotic-resistance gene(s) incorporated into the expression plasmid(s). Selection pressure was maintained by including selection antibiotics in the culture medium. HEK293 cells were cultured in Dulbecco's Modified Eagle Medium/Nutrient Mixture F-12 (D-MEM/F-12) supplemented with 10% fetal bovine serum, 100 U/mL penicillin G sodium, 100 g/mL streptomycin sulfate and appropriate selection antibiotics. CHO cells were cultured in Ham's F-12 supplemented with 10% fetal bovine serum, 100 U/mL penicillin G sodium, 100 g/mL streptomycin sulfate and appropriate selection antibiotics.
For FLIPR TETRA™ assay, cells were plated in 384-well black wall, flat clear bottom microtiter plates (Type: BD Biocoat Poly-D-Lysine Multiwell Cell Culture Plate) at 20,000 to 30,000 cells per well (384-well plate). Cells were incubated at 37° C. overnight or until the cells reached a sufficient density in the wells (near confluent monolayer) to use in fluorescence assays. For α4β2 assay, cells were incubated at 27° C. for at least 7 hours before use.
Experiments were performed with either the FLIPR calcium sensitive dye kit (Fluo-8, ABDbioquest, for nAChR α3/β4 and nAChR α7) or FLIPR membrane potential kit (Molecular Devices, for nAChR α4/β2) according to the manufacturer's instructions. Briefly, cells were incubated with 201 dye for 30 min at 37° C. After dye loading period, for the agonist assay, 5 μl of the test, vehicle, or control articles at concentration of 5 times of final concentration were applied to the cells without stimulation. For the positive allosteric modulation (PAM) and antagonist assay, after test article application, the cells were stimulated with either low dose (for PAM) or high dose (for antagonist) of Ach.
The ability of each test article to act as a positive allosteric modulator of nicotinic α7 was carried out in the presence of the positive control agonist (30 μM Ach) alone. The signal elicited in the presence of the positive control agonist and allosteric modulator PNU-120596 (30 μM Ach+10 μM PNU-120596) was set to 100% and the signal from the agonist control (30 μM Ach) was set to 0%. Values were considered significant and in bold font if the test article mean was three or more standard deviations above the agonist control mean.

7W CHO cells = assay: Toxicity in 7W CHO cells; assay type: cell-based
[3] = system: Experimental Autoimmune Thyroiditis; assay: Experimental Autoimmune Thyroiditis (Example 16A): lymphoid typing by flow cytometry; assay type: in vivo, mice; details: p=0.0143
Protocol: (§1) Thyroiditis was induced by injection of thyroglobulin emulsified in complete Freund's adjuvant (CFA). On days 0 and 7, female mice received subcutaneous injection of 100 μg thyroglobulin (2 injections of 50 μg each). Control mice drank water. […] Mice were sacrificed on day 21.
Lymphoid typing. Cervical lymph nodes were removed for lymphoid typing by flow cytometry. Spleen and peritoneal macrophages were removed for ex vivo stimulation.

HEK293 = assay: LDH cytotoxicity assay on supernatants of the treated cells; assay type: cell-based, Human
Protocol: Cytotoxicity assays using the supernatants from the treated cells were conducted using an LDH Cytotoxicity Detection Kit (Roche) according to the manufacturer's instructions.

autoimmune thyroiditis = assay: Autoimmune thyroiditis in thyroglobulin-immunized mice (Example 16B); assay type: in vivo, CBA/J female mice; details: 0.05 mg/ml in drinking water
Protocol: In another experiment, eighteen CBA/J female mice were immunized with mouse thyroglobulin, emulsified in complete Freund's adjuvant, on day 0 and day 7. One group of mice (n=10) drank regular water. […] Mice were sacrificed 21 days after the first immunization to collect the thyroid gland and the blood. The thyroid was analyzed for the presence of infiltrating mononuclear cells. The blood was analyzed for the levels of antibodies against thyroglobulin.

BACE-1 mRNA = BACE-1 mRNA levels in SHSY cells by RTPCR; assay type: cell-based, human; details: 30 minutes, TNF-α induced
Text: TNF-α was used to increase BACE expression.

[4] = Physical signs after oral multi-dose administration; assay type: in vivo, Sprague-Dawley rats; details: 0.6 or 6.0 mg/kg BW p.o. in three divided doses
Text: The physical signs of each animal were monitored following administration of the test compound.

[5] = Case: treatment of patient with autism and seizure disorder; assay type: in vivo, human patient; details: 1.0 mg three times per day
Text: A patient, who was diagnosed with autism and a seizure disorder, had brain surgery and began rehabilitation the following month.

[6] = system: Experimental Autoimmune Thyroiditis; assay: Experimental Autoimmune Thyroiditis (Example 16A): serum antibodies to PPD and thyroglobulin; assay type: in vivo, mice
Protocol: as §1
Immunochemistry. Serum from control and anatabine-treated mice was examined to determine levels of antibodies to a foreign antigen (PPD).
Levels of antibodies to thyroglobulin were examined on days 7, 14, and 21 after immunization.

[7] = system: BACE-1 protein expression; assay: BACE-1 protein expression in SHSY cells (Western blot); assay type: cell-based, human; details: 24 hours, corrected for actin
Aβ production = Aβ production in 7W CHO cells; assay type: cell-based
[8] = Single i.v. dose toxicity with 14-day observation: clinical signs and mortality; assay type: in vivo, Sprague-Dawley rats; details: nicotine 0.75 mg/kg single i.v.
Protocol: Body weight and food consumption was measured daily for 14 days. On day 15, urine was collected on all surviving animals. The animals were euthanized and bled via cardiac puncture, and blood was collected for analysis. Tissues were collected, weighed, evaluated for gross abnormalities, and stored in 10% neutral-buffered formalin.
Four aliquots of each dose formulation were collected and stored at −80° C.
The animals were weighed prior to dosing and received a single i.v. dose via the lateral tail vein of either test compound or vehicle at a volume of 5 mL/kg.

T1 sequence (P36544 23-502): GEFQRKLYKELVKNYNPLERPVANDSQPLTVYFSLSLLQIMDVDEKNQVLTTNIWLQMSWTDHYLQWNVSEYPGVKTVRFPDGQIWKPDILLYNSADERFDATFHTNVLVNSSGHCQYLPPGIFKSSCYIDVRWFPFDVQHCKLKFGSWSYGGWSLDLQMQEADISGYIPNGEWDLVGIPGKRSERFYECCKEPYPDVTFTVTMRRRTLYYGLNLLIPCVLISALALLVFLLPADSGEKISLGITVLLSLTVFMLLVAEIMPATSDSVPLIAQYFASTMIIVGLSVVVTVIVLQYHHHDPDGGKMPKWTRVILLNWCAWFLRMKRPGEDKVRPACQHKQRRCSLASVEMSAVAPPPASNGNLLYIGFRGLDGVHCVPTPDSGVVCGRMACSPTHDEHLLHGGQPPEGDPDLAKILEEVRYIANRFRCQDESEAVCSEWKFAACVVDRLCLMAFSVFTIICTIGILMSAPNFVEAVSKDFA

C1=CCC(c2cccnc2)NC1 (racemic) [Anatabine (racemate)]
inhibition at 0.3 µM (nAChR α7 [1]; test conc 0.3 μM): 22.4% | inhibition at 1 µM (nAChR α7 [1]; test conc 1 μM): 22.2% | inhibition at 3 µM (nAChR α7 [1]; test conc 3 μM): 45.2% | inhibition at 10 µM (nAChR α7 [1]; test conc 10 μM): 33.4% | inhibition at 30 µM (nAChR α7 [1]; test conc 30 μM): 22.9% | inhibition at 100 µM (nAChR α7 [1]; test conc 100 μM): 22% | inhibition at 300 µM (nAChR α7 [1]; test conc 300 μM): 7.51% | inhibition at 1000 µM (nAChR α7 [1]; test conc 1000 μM): 10.8% | Normalized % Potentiation (nAChR α7 [2]; test conc 0.3 μM): −0.94% | Normalized % Potentiation (nAChR α7 [2]; test conc 1 μM): −1.05% | Normalized % Potentiation (nAChR α7 [2]; test conc 3 μM): −0.82% | Normalized % Potentiation (nAChR α7 [2]; test conc 10 μM): −0.51% | Normalized % Potentiation (nAChR α7 [2]; test conc 30 μM): −0.57% | Normalized % Potentiation (nAChR α7 [2]; test conc 100 μM): −0.64% | Normalized % Potentiation (nAChR α7 [2]; test conc 300 μM): −0.74% | Normalized % Potentiation (nAChR α7 [2]; test conc 1000 μM): −1.05%

C1=CCC(c2cccnc2)NC1 (racemic) [Anatabine, 1,2,3,6-tetrahydro-[2,3′]bipyridinyl]
toxicity (7W CHO cells): No toxicity was observed | activated T cells ([3]; cervical lymph nodes): fewer activated T cells | regulatory T cells ([3]; cervical lymph nodes): more regulatory T cells | ability to present antigens [3]: a lower ability to present antigens | cytotoxicity (LDH release) (HEK293): without cellular toxicity | levels of thyroglobulin antibodies (autoimmune thyroiditis; day 21): had no effect on the levels of thyroglobulin antibodies | thyroiditis frequency and severity (autoimmune thyroiditis; day 21, p=0.023): developed thyroiditis less frequently and of lower severity | BACE-1 mRNA expression (BACE-1 mRNA): reduced this signal in a concentration-dependent manner | adverse signs [4]: no adverse signs were observed | cognitive benefits ([5]; from approximately one week): improved communication and language skills and the ability to focus | frequency of seizures ([5]; over 3½ weeks, one patient): decreased from one per day to approximately one per week | levels of antibodies to PPD ([6]; 0.05 mg/ml in drinking water, versus control): no significant difference | levels of antibodies to thyroglobulin ([6]; day 7): no significant difference | levels of antibodies to thyroglobulin ([6]; day 14, p=0.086): tended to have lower thyroglobulin antibodies | levels of antibodies to thyroglobulin ([6]; day 21): no significant difference | BACE-1 protein expression [7]: reduced BACE expression | Aβ production (Aβ1-42, Aβ1-40) (Aβ production): concentration-dependent reduction of Aβ production

CN1CCCC1c1cccnc1.O=C(O)C(O)C(O)C(=O)O (single isomer, unassigned; (-)) [Nicotine, (−) Nicotine hydrogen tartrate, reference compound]
mortality ([8]; 5 males and 5 females, tartrate): One male and two females died post dose; also recorded: one male animal and 2 females died following test compound administration | clinical signs after dosing ([8]; male and female rats): experienced tremors upon compound administration but returned to normal within 15-20 minutes post dose
